Results as given in US20200368272A1, “COMPOSITION FOR AMELIORATING POST-CEREBRAL STROKE SEQUELA” (MiZ Company Limited, priority 2019, published 2020).

How the values were obtained:
[1] = test system: sequelae of cerebellar hemorrhage (loss of motor control, language disorder) in a person
Experimental: A person was hospitalized after developing cerebellar hemorrhage about eight years ago, then was transferred to a rehabilitation hospital after discharge to receive rehabilitation, which they are continuing to this day.
The inhalation of molecular hydrogen was performed daily for the first 2 months, 1 to 1.5 hours in the morning and 1 to 1.5 hours in the evening, then daily for 1 month, 2 to 3 hours in the morning and 2 to 3 hours in the evening, and finally daily for 1 month, 1 hour in the morning and 1 hour in the evening.

[2] = normal temperature and pressure; also printed as 1.6 mg/L; cited from earlier work

In the case of `[HH]` [molecular hydrogen], the “articulation (language disorder)” value ([1]; approximately one month after inhaling) is reported as “improved”, the “time needed to walk a distance that previously took 20 minutes” value ([1]; approximately one month after inhaling, about 6 to 7.5 vol % H2) is reported as “about 10 minutes” and the speech ([1]; approximately three months after inhalation) is reported as “their speech became even more audible”. For the same molecule, the “motor and daily-life abilities” value ([1]; approximately two months after inhalation) was “able to talk while walking, their stride during rehabilitation lengthened” and the “concentration at which hydrogen dissolves in water” value [2] was “about 1.6 ppm”.
